Converted amounts (≈) assume the structure as drawn. Residues, ends and D or L forms follow the SMILES beside them.
Columns and labels:
E. coli [1] = experiment: Live/Dead staining (SYTO 9 / PI) of membrane integrity, confocal microscopy; assay type: cell-based, Escherichia coli; settings: 10 min
Method: Microbial cell membrane integrity or damage was assayed with Live/Dead staining. E. coli were grown as for the antimicrobial activity assay and washed with PPB. […] Untreated cells served as negative control. Cells were subsequently stained with 5 μM SYTO 9 and 5 μM propidium iodide (PI). After a 10-minute incubation in the dark, 5 µl of each cell suspension was placed on a microscope slide, covered with thin 2 % (w/v) agar slices, and examined using an Olympus Fluoview FV1000 confocal laser microscope at × 60 magnification. For SYTO 9, excitation was at 488 nm and emission was collected between 500 and 530 nm; for PI, excitation was at 543 nm with emission detected between 555 and 655 nm. Sequential scanning was used to avoid crosstalk of the fluorescent dyes.
Next, we investigated whether the application of NCR169C17–38 peptide affects membrane permeability of E. coli, and if so, to what extent and how rapidly these changes occur.

E. coli [2] = experiment: Real-time PI uptake; assay type: cell-based, Escherichia coli
Method: To monitor PI uptake in real time, 10 µl of E. coli suspension (OD₆₀₀ = 0.1, prepared as described above) was mixed with 90 µl of PPB containing a two-fold serial dilution of NCR169C17–38 (12.5 µM to 0.8 µM) or polymyxin B (0.8 µM), along with 200 ng/ml PI. Fluorescence was recorded using a Hidex Sense Microplate Reader (software version 5064) with excitation and emission wavelengths set at 535 nm and 617 nm, respectively. Experiments were repeated three times.
To get a more precise assessment of how rapidly NCR169C17–38 induces membrane damage, we monitored PI uptake in real time. E. coli was treated in a microtiter plate with two-fold dilutions of NCR169C17–38 (12.5 - 0.8 µM) and PI fluorescence was measured using a plate reader (Fig. 2.C). For comparison, polymyxin B, a well-known membrane-permeabilizing/damaging antibiotic, was included as a control. A rapid rise in fluorescence within 1–2 min was observed upon exposure to NCR169C17–38 at MBC or higher concentrations, indicating swift membrane permeabilization.

E. coli genomic DNA = experiment: Gel retardation assay; assay type: binding, Escherichia coli; settings: 100 ng E. coli genomic DNA, 10 or 100 µM peptide, 30 min at 37 °C
Method: (§1) The DNA- and RNA-binding abilities of NCR169C17–38, its parental peptide NCR169, and two shorter derivatives (NCR169_16–27 and NCR169_17–27) were initially evaluated using a gel retardation assay. In this setup, 100 ng of either E. coli genomic DNA or total RNA was incubated with 10 µM or 100 µM of each peptide for 30 min at 37 °C. Reaction mixtures, along with untreated controls, were then subjected to agarose gel electrophoresis, and the resulting nucleic acid migration patterns were examined for changes indicative of peptide binding. The interaction of NCR169C17–38 with circular plasmid DNA (pDEST-GBKT7) was also characterized using peptide concentrations ranging from 50 µM to 0.8 µM, prepared by 2-fold serial dilution. Experiments were done in three biological replicates.
(§2) To explore whether the NCR169C17–38 peptide has secondary intracellular targets of the bacterial cells beyond the primary membrane disruption, we tested its possible interaction with nucleic acids in gel retardation assays. A pilot experiment indicated strong DNA-binding capacity, prompting us to include the parental NCR169 peptide and the shorter derivatives NCR169_16–27 and NCR169_17–27 for comparison (Fig. 3.). […] Similar results were obtained with total E. coli RNA (Fig. 3.B). […]

E. coli total RNA = experiment: Gel retardation assay; assay type: binding, Escherichia coli; settings: 100 ng E. coli total RNA, 10 or 100 µM peptide, 30 min at 37 °C
Method: as §1, §2

A. baumannii = assay type: cell-based, Acinetobacter baumannii; settings: 8 h
Method: For serum stability test human blood was purchased from the Regional Blood Centre in Szeged (the use of human blood has been authorized by the Regional Hungarian Ethics Committee and approved by the Ethics Review Sector of DG RTD (European Commission) in connection with EK’s ERC AdG SymBiotics). The cells from 10 ml of EDTA-blood were centrifuged at 1500 × g for 1 min and washed several times in TBS buffer (10 mM Tris, pH: 7.2, 150 mM NaCl) until the supernatant, representing the serum, became colorless. The NCR169C17–38 peptide was added to the serum at 1:1 ratio and incubated at room temperature for 8 h. Subsequently, serial 2-fold dilutions of the peptide were prepared in PPB, with concentrations ranging from 100 to 0.2 µM and antimicrobial assay was done to determine the MBC values. Experiments were done in three biological replicates.

[3] = Liposome sedimentation assay; assay type: binding; settings: 20 μM peptide, 30 min room temperature, 200,000 × g, SDS-PAGE
Method: To prepare the liposomes, phospholipids DMPC and Cardiolipin purchased from Avanti Polar Lipids (Alabaster, AL, USA) were dissolved in Chloroform:Methanol:Water in the ratio of (65:25:4) and (73:23:3) respectively, and dried under vacuum for 1 h. The lipid film was suspended in the assay buffer (20 mM HEPES, 150 mM NaCl, pH 7.0), vortexed, and sonicated for 15 min to form the liposomes. The assay was carried out by incubating 2 mM of the liposomes with 20 μM of NCR169C17–38 peptide and incubated for 30 min at room temperature, followed by ultracentrifugation at 200,000 × g for 15 min at 20 °C. After centrifugation, the supernatant (sn) and pellet (p) fractions were collected separately and were subjected to glycine-SDS-PAGE. The peptides were detected by Coomassie Brilliant Blue staining.
Prepared liposomes were incubated with NCR169C17–38, then separated by ultracentrifugation. Peptide remaining in the supernatant (sn) fraction indicated no binding, whereas peptide detected in the pellet (p) fraction indicated liposome association.

[4] = system: human keratinocyte HaCaT cells; settings: cited from earlier work

For CC[C@H](C)[C@H](NC(=O)[C@H](CCCCN)NC(=O)[C@H](Cc1ccccc1)NC(=O)[C@H](CC(C)C)NC(=O)[C@@H]1CCCN1C(=O)[C@H](CCCCN)NC(=O)[C@H](CCCCN)NC(=O)[C@H](CO)NC(=O)[C@@H](N)CCCCN)C(=O)N[C@@H](Cc1c[nH]c2ccccc12)C(=O)N[C@@H](CCCCN)C(=O)N[C@@H](CS)C(=O)N[C@H](C(=O)N[C@@H](CCC(=O)O)C(=O)N[C@@H](CC(N)=O)C(=O)N[C@H](C(=O)N[C@@H](CS)C(=O)N[C@H](C(=O)N[C@@H](CC(C)C)C(=O)N[C@@H](Cc1c[nH]c2ccccc12)C(=O)N[C@@H](Cc1ccc(O)cc1)C(=O)N[C@@H](CCCCN)C(N)=O)C(C)C)C(C)C)C(C)C [NCR169C17–38] (H-KSKKPLFKIWKCVENVCVLWYK-NH2; N-terminus assumed), the “membrane integrity, SYTO 9 / PI staining” value (E. coli [1]; 0.8 µM peptide) was “predominantly red-stained cells”, the “membrane integrity, SYTO 9 / PI staining” value (E. coli [1]; 1.6 µM peptide) was “all cells appeared red” and the “time to rapid rise in PI fluorescence” value (E. coli [2]; E. coli in PPB, peptide at MBC or higher concentrations (12.5-0.8 µM tested), 200 ng/ml PI) was 1 to 2 min. For the same compound, the “PI uptake kinetics compared at respective MBC values” (E. coli [2]; E. coli, polymyxin B 0.8 µM as control) was “more rapidly and effectively than polymyxin B”, the “DNA binding, gel retardation” value (E. coli genomic DNA) was “completely preventing DNA migration from the well at the lower concentration” and the “RNA binding, gel retardation” value (E. coli total RNA) was “completely blocked RNA migration at high concentrations”. The “MBC after pre-incubation in human serum” value (A. baumannii) was 6.3 µM (≈ 17.3 µg/mL), the liposome binding ([3]; 2 mM Cardiolipin liposomes) was “bound strongly” and the liposome binding ([3]; 2 mM DMPC liposomes) was “no binding”. For the same compound, the cytotoxicity [4] was “non-cytotoxic”.

From article PMC12811501, “A plant-derived antimicrobial peptide with multiple mechanisms of action exhibiting antibacterial and antibiofilm activities comparable to or superior to polymyxin B” (Current Research in Microbial Sciences, 2025)
